In PMC8447191, “Peptide Amphiphilic-Based Supramolecular Structures with Anti-HIV-1 Activity” (Bioconjugate Chemistry, 2021):
*1 amine or outer side, *2 acyl side, *3 side chain or, on linkers, in order; H or OH if unused. Where a SMILES comes first, the peptide text is derived from it. Side-chain parts run from the residue outwards. [ ]: non-standard residue; d: D form. The star is where a group is joined. PEG28 = NCCOCCOCCOCCOCCOCCOCCOCCOCCOCCOCCOCCOCCOCCOCCOCCOCCOCCOCCOCCOCCOCCOCCOCCOCCOCCOCCOCCOCCC(=O)O; X2 = CC(C)CCC[C@@H](C)[C@H]1CC[C@H]2[C@@H]3CC=C4C[C@@H](OC(=O)C*)CC[C@]4(C)[C@H]3CC[C@]12C; N(octadecyl)2 = CCCCCCCCCCCCCCCCCCN(CCCCCCCCCCCCCCCCCC)*; NHOctadecyl = CCCCCCCCCCCCCCCCCCN*; PEG4 = NCCOCCOCCOCCOCCC(=O)O; Suc = O=C(CCC(=O)[*:2])[*:1]

Key:
[1] = design: method as in 2 sources, ref 31, 32 = [31]; doi:10.1007/BF02682570; Schick M. J. ( 1966 ) Micelle formation in mixtures of nonionic and cationic detergents . J. Am. Oil Chem. Soc. 43 , 681 – 682 . 10.1007/BF02682570 . || [32]; doi:10.1016/0021-9797(70)90007-X; Barry B. W.; Morrison J. C.; Russell G. F. ( 1970 ) Prediction of the critical micelle concentration of mixtures of alkyltrimethylammonium salts . J. Colloid Interface Sci. 33 , 554 – 561 . 10.1016/ ||| ref 33, 34 = [33]; PMID 17658541; doi:10.1016/j.jcis.2007.06.010; Rodríguez J. L.; Sierra M. B.; Messina P. V.; Morini M. A.; Schulz P. C.; del Burgo P.; Junquera E.; Rodríguez A.; Aicart E. ( 2007 ) Surface and bulk properties of aqueous decyltrimethylammon || [34]; PMID 25356774; doi:10.1039/C4SM01575D; Pucci C.; Pérez L.; La Mesa C.; Pons R. ( 2014 ) Characterization and stability of catanionic vesicles formed by pseudo-tetraalkyl surfactant mixtures . Soft Matter 10 , 9657 – 9667 . 10.1039/C4SM0; details: cited from earlier work
MTT cytotoxicity assay = format: cell-based; details: human, HeLa-env cells, PAs coassembled with 5% FAM, 40-2.3 μM, absorbance 560 nm
Protocol: The metabolic activity of the cell line, related to the cytotoxic effect of the compounds to be tested, is measured after 24 h using the MTT assay. This assay is based on the metabolic reduction of 3-(4,5-dimethylthiazol-2-yl)-2,5-diphenyl-2H-tetrazolium bromide (MTT), carried out by the mitochondrial enzyme succinate dehydrogenase, in a colored compound of blue color (formazan) that can be monitored by absorbance spectroscopy at 560 nm, allowing determination of the mitochondrial functionality of the treated cells.
The HeLa-env cell line is seeded in 96-well plates with an initial density of 15,000 cells per well in 100 μL of culture medium (Dulbecco’s modified Eagle’s medium, DMEM, with 10% FBS added) and incubated for 24 h at 37 °C and 5% CO2 to allow their adhesion. The cell monolayers are washed with PBS, and then 100 μL of PAs formulations (peptide amphiphiles coassembled with 5% FAM) are added in a concentration range from 40 μM to 2.3 μM. The plates are kept in incubation for further 24 h.
At the end of the incubation time, the cells are incubated for 3 h with 1 mg/mL of MTT, dissolved in culture medium without FBS, to allow the formation of formazan crystals. Subsequently, 100 μL of DMSO are added to wells, stirring the plates for 30 min at room temperature to facilitate the complete dissolution of the crystals. Finally, the absorbance at 560 nm is measured in a microplate reader.
The results are expressed as relative percentage between absorbance of PA formulations against absorbance of its DMSO controls and CC50 and CC25 values are taken from dose–response curves.

HIV-1BaL = format: cell-based; details: HIV-1BaL, TZM-bl cells; peptide 10-0.00061 μM for 1 h at 37 °C before virus; luciferase after 48 h; sigmoid fit; mean of triplicates
Protocol: HIV-1BaL[52] was provided by the NIH AIDS Research & Reference Reagent Program (http://www.aidsreagent.org/). Viral stock was prepared by passage through activated PBMCs[53] for 11 days.
Luciferase-reporter HeLa cells stably transfected to express CD4 and CCR5; TZM-bl cells[54]−[56] were grown in Dulbecco’s Minimal Essential Medium (DMEM) (Sigma-Aldrich, Inc., St. Louis, MO) containing 10% fetal calf serum (FCS), 2 mM L-glutamine, and antibiotics (100 U of penicillin/mL, 100 μg of streptomycin/mL) at 37 °C in an atmosphere containing 5% CO2.
All inhibition assays in cellular and tissue explants models were performed using a standardized amount of virus culture supernatant normalized for infectivity. TZM-bl cells were incubated with serial dilutions of peptides (from 10 μM to 0.00061 μM) for 1 h at 37 °C, prior to challenge with HIV-1BaL. Luciferase expression (r.l.u. values) was determined after 48 h. Alternatively, tissue explants were incubated with serial dilutions of peptide (from 100 μM to 0.1 μM) for 1 h before virus (10^4 TCID50/mL) was added for 2 h. Explants were then washed four times with PBS to remove unbound virus and drug. Colorectal explants were then transferred onto gelfoam rafts (Welbeck Pharmaceuticals, UK) and cultured for 15 days as described previously[57] […]. Explants were cultured for up to 15 days in the absence of peptide. Approximately 50% of the supernatants were harvested every 2–3 days and explants were re-fed with fresh media. The extent of viral replication in tissue explants was determined by measuring the p24 antigen concentration in supernatants (INNOTEST HIV antigen mAb; Fujirebio Europe, Belgium). The extent of inhibition by each peptide was calculated. The percentage of inhibition was normalized relative to the r.l.u, for TZM-bl cells, or p24, for tissue explants, values obtained for cells or explants cultured in the absence of virus (100% inhibition) and for cells or explants infected with virus in the absence of peptide (0% inhibition). Data are the mean (±SEM) of triplicates. When a dose–response curve was obtained, IC50 and, if possible, IC95 values were calculated from sigmoid curve fits (GraphPad Prism). For all curves, R^2 is >0.7.

[2] = Visual stability and aspect of POPC vesicles mixed with PAs (SAXS samples); format: physicochemical; details: POPC 20 mM + 2 mM PA, 0.5% DMSO
Protocol: In Figure 5A,B, we show the spectra corresponding to POPC 20 mM and POPC 20 mM + 2 mM PAs (all of them in the presence of 0.5% DMSO). The band centered at 1.2 nm^–1 and the secondary band at 3.2 nm^–1 were typical of unilamellar vesicles.[35]
The incorporation of PAs had some distinct consequences. The first and more obvious one is the distinction between stable and unstable systems.

Row | SMILES | CMC [1] | CC50 at 24 h (MTT cytotoxicity assay) | IC50 (HIV-1BaL) | stability / aspect of the sample [2]
1 | CCCCCCCCCCCC[N+](C)(C)C.[Br-] [dodecyl trimethyl ammonium bromide] | 14.5 mM | – | – | –
2 | CCCCCCCCCCCCCCCCCCN(CCCCCCCCCCCCCCCCCC)C(=O)CCC(=O)NCCOCCOCCOCCOCCOCCOCCOCCOCCOCCOCCOCCOCCOCCOCCOCCOCCOCCOCCOCCOCCOCCOCCOCCOCCOCCOCCOCCOCCC(=O)N[C@@H](Cc1c[nH]c2ccccc12)C(=O)N[C@H](C(=O)N[C@@H](CC(C)C)C(=O)N[C@@H](CCC(=O)O)C(=O)N[C@@H](Cc1ccc(O)cc1)C(=O)N[C@@H](CC(C)C)C(=O)N[C@@H](Cc1c[nH]c2ccccc12)C(=O)N[C@@H](CCCCN)C(=O)N[C@H](C(=O)N1CCC[C@H]1C(=O)N[C@@H](Cc1ccccc1)C(=O)N[C@@H](CC(=O)O)C(=O)N[C@@H](Cc1ccccc1)C(=O)N[C@@H](Cc1c[nH]c2ccccc12)C(=O)N[C@@H](CCCNC(=N)N)C(=O)NCC(=O)N[C@H](C(=O)N[C@H](C(N)=O)[C@@H](C)CC)C(C)C)C(C)C)[C@@H](C)CC [N-PAdialkyl] ({N(octadecyl)2-Suc-PEG28}-WILEYLWKVPFDFWRGVI-NH2) | – | > 40 µM | 0.15 µM | precipitated rather fast and made compact flocks
3 | CCCCCCCCCCCCCCCCCCNC(=O)CCC(=O)NCCOCCOCCOCCOCCOCCOCCOCCOCCOCCOCCOCCOCCOCCOCCOCCOCCOCCOCCOCCOCCOCCOCCOCCOCCOCCOCCOCCOCCC(=O)NCCCC[C@H](NC(=O)[C@H](Cc1c[nH]c2ccccc12)NC(=O)[C@H](CC(C)C)NC(=O)[C@H](Cc1ccc(O)cc1)NC(=O)[C@H](CCC(=O)O)NC(=O)[C@H](CC(C)C)NC(=O)[C@@H](NC(=O)[C@@H](N)Cc1c[nH]c2ccccc12)[C@@H](C)CC)C(=O)N[C@H](C(=O)N1CCC[C@H]1C(=O)N[C@@H](Cc1ccccc1)C(=O)N[C@@H](CC(=O)O)C(=O)N[C@@H](Cc1ccccc1)C(=O)N[C@@H](Cc1c[nH]c2ccccc12)C(=O)N[C@@H](CCCNC(=N)N)C(=O)NCC(=O)N[C@H](C(=O)N[C@H](C(N)=O)[C@@H](C)CC)C(C)C)C(C)C [K-PAmonoalkyl] (H-WILEYLWK([PEG28-Suc-NHOctadecyl])VPFDFWRGVI-NH2) | – | 23 µM | 0.37 µM | milky
4 | CC[C@H](C)[C@H](NC(=O)[C@@H](NC(=O)CNC(=O)[C@H](CCCNC(=N)N)NC(=O)[C@H](Cc1c[nH]c2ccccc12)NC(=O)[C@H](Cc1ccccc1)NC(=O)[C@H](CC(=O)O)NC(=O)[C@H](Cc1ccccc1)NC(=O)[C@@H]1CCCN1C(=O)[C@@H](NC(=O)[C@H](CCCCN)NC(=O)[C@H](Cc1c[nH]c2ccccc12)NC(=O)[C@H](CC(C)C)NC(=O)[C@H](Cc1ccc(O)cc1)NC(=O)[C@H](CCC(=O)O)NC(=O)[C@H](CC(C)C)NC(=O)[C@@H](NC(=O)[C@H](Cc1c[nH]c2ccccc12)NC(=O)CCOCCOCCOCCOCCOCCOCCOCCOCCOCCOCCOCCOCCOCCOCCOCCOCCOCCOCCOCCOCCOCCOCCOCCOCCOCCOCCOCCOCCNC(=O)[C@@H](N)CSCC(=O)O[C@H]1CC[C@@]2(C)C(=CC[C@H]3[C@@H]4CC[C@H]([C@H](C)CCCC(C)C)[C@@]4(C)CC[C@@H]32)C1)[C@@H](C)CC)C(C)C)C(C)C)C(N)=O [N-PAchol] (H-C(X2)[PEG28]WILEYLWKVPFDFWRGVI-NH2) | – | > 40 µM | 0.12 µM | milky
5 | CCCCCCCCCC[N+](C)(C)CCCCCCCCCC.[Br-] [didecyl dimethyl ammonium bromide] | 1.4 mM | – | – | –
6 | CC[C@H](C)[C@H](NC(=O)[C@@H](NC(=O)CNC(=O)[C@H](CCCNC(=N)N)NC(=O)[C@H](Cc1c[nH]c2ccccc12)NC(=O)[C@H](Cc1ccccc1)NC(=O)[C@H](CC(=O)O)NC(=O)[C@H](Cc1ccccc1)NC(=O)[C@@H]1CCCN1C(=O)[C@@H](NC(=O)[C@H](CCCCN)NC(=O)[C@H](Cc1c[nH]c2ccccc12)NC(=O)[C@H](CC(C)C)NC(=O)[C@H](Cc1ccc(O)cc1)NC(=O)[C@H](CCC(=O)O)NC(=O)[C@H](CC(C)C)NC(=O)[C@@H](NC(=O)[C@H](Cc1c[nH]c2ccccc12)NC(=O)CCOCCOCCOCCOCCNC(=O)[C@@H](N)CSCC(=O)O[C@H]1CC[C@@]2(C)C(=CC[C@H]3[C@@H]4CC[C@H]([C@H](C)CCCC(C)C)[C@@]4(C)CC[C@@H]32)C1)[C@@H](C)CC)C(C)C)C(C)C)C(N)=O [PA3PEG3] (H-C(X2)[PEG4]WILEYLWKVPFDFWRGVI-NH2) | – | > 40 µM | 2.01 µM | –
7 | CCCCCCCCCCCCCCCCCCN(CCCCCCCCCCCCCCCCCC)C(=O)CCC(=O)NCCOCCOCCOCCOCCC(=O)N[C@@H](Cc1c[nH]c2ccccc12)C(=O)N[C@H](C(=O)N[C@@H](CC(C)C)C(=O)N[C@@H](CCC(=O)O)C(=O)N[C@@H](Cc1ccc(O)cc1)C(=O)N[C@@H](CC(C)C)C(=O)N[C@@H](Cc1c[nH]c2ccccc12)C(=O)N[C@@H](CCCCN)C(=O)N[C@H](C(=O)N1CCC[C@H]1C(=O)N[C@@H](Cc1ccccc1)C(=O)N[C@@H](CC(=O)O)C(=O)N[C@@H](Cc1ccccc1)C(=O)N[C@@H](Cc1c[nH]c2ccccc12)C(=O)N[C@@H](CCCNC(=N)N)C(=O)NCC(=O)N[C@H](C(=O)N[C@H](C(N)=O)[C@@H](C)CC)C(C)C)C(C)C)[C@@H](C)CC [PA2PEG3] ({N(octadecyl)2-Suc-PEG4}-WILEYLWKVPFDFWRGVI-NH2) | – | > 40 µM | – | –
8 | CCCCCCCCCCCCCCCCCCNC(=O)CCC(=O)NCCOCCOCCOCCOCCC(=O)N[C@@H](Cc1c[nH]c2ccccc12)C(=O)N[C@H](C(=O)N[C@@H](CC(C)C)C(=O)N[C@@H](CCC(=O)O)C(=O)N[C@@H](Cc1ccc(O)cc1)C(=O)N[C@@H](CC(C)C)C(=O)N[C@@H](Cc1c[nH]c2ccccc12)C(=O)N[C@@H](CCCCN)C(=O)N[C@H](C(=O)N1CCC[C@H]1C(=O)N[C@@H](Cc1ccccc1)C(=O)N[C@@H](CC(=O)O)C(=O)N[C@@H](Cc1ccccc1)C(=O)N[C@@H](Cc1c[nH]c2ccccc12)C(=O)N[C@@H](CCCNC(=N)N)C(=O)NCC(=O)N[C@H](C(=O)N[C@H](C(N)=O)[C@@H](C)CC)C(C)C)C(C)C)[C@@H](C)CC [PA1PEG3] ({NHOctadecyl-Suc-PEG4}-WILEYLWKVPFDFWRGVI-NH2) | – | > 40 µM | 0.23 µM | –
9 | CCCCCCCCCCCCCCCC[N+](C)(C)C [hexadecyl trimethyl ammonium bromide] | 0.8 mM | – | – | –
10 | CCCCCCCCCC[N+](C)(C)C.[Br-] [decyl trimethyl ammonium bromide] | 66.8 mM | – | – | –
